≈ marks a conversion by molar mass, not a printed value. Like-named read-outs stand apart in the source and are kept apart here.
Tests used:
Leishmania major = assay: in vitro growth inhibitory activity against L. major promastigotes; format: cell-based
Source text: 35, pp. 2198-2202 (1991).

Giardia lamblia = assay: in vitro growth inhibitory activity against Giardia lamblia; format: cell-based; details: Giardia duodenalis; concentration required to inhibit growth by 50%
Experimental: 35, pp. 2198-2202 (1991). EC50 values for test compounds, expressed in parts per million (ppm), were calculated from dose response curves and are presented in Table 4. As used herein, the terminology "EC50" means the concentration of test compound required to inhibit growth by 50% are compared to a control lacking the test compound. Metronidazole was included as a standard in the tests for comparative purposes.

Entamoeba histolytica = assay: in vitro growth inhibitory activity against E. histolytica; format: cell-based
Source text: 35, pp. 2198-2202 (1991). Metronidazole was included as a standard in the test for comparative purposes.

[1] = tested on: Encephalitozoon (Septata) intestinalis; assay: growth inhibitory activity against E. intestinalis grown on Vero cells (spore count); format: cell-based; details: 336 h, 0.1 μg/ml, spore number after 2 weeks, read-out: Growth (% of control)
Experimental: Compounds 2, 10 and 15 were tested for i,7 vitro growth inhibitory activity against E. intestinalis, grown on African green monkey kidney cells (Vero cells). Vero cells were grown in 25-cm^2 culture flasks at 37° C. in a humidified 5% carbon dioxide incubator. Cultures were maintained in minimal essential medium (Gibco BRL, Gaithersburg, Md., U.S.A.), supplemented with L-glutamine, Earle's salts, 5% heat-inactivated foetal calf serum (Hyclone Labs, Inc., U.S.A.), fungizone (2 μg/ml, Gibco BRL) and gentamicin (50 μg/ml, Gibco BRL). E. intestinalis spores were collected from the supernatant of an infected Vero cell culture and were used to infect normal cells to produce a fresh spore preparation for growth inhibition tests.
Growth inhibition tests were performed in 24-well culture plates. One ml of Vero cells (5×10^4 cells per ml) was placed in each well and the cells incubated for 12-15 hours at 37° C. The supernatant medium was then removed and replaced with 1 ml of medium containing 1.5-2.0×10^4 E. intestinalis spores per ml along with 1 μl of test compound dissolved in dimethylsulfoxide (DMSO) or DMSO alone for the control treatments without test compound. The plates were incubated at 37° C. and the medium was changed every 72 h along with fresh test compound in DMSO or DMSO alone (controls). After 2 weeks the supernatant was transferred from each well to a microcentiifuge tube, then concentrated by centrifugation with resuspension of the resulting E. intestinalis spore pellet in 300-500 μl fresh medium. The spore number in each sample was then determined by counting in a hemocytometer. The results in Table 11 show the effects of the test compounds on the number of spores and are expressed as a percentage of the spore number in the control treatment without test compound.

Tetrahymena pyriformis = assay: in vitro growth inhibitory activity against the ciliate Tetrahymena pyriformis; format: cell-based, Tetrahymena pyriformis (ATCC strain 30005); details: read-out: EC50 Tetrahymena pyriformis
Experimental: Compounds were evaluated for in vitro growth inhibitory activity against the ciliate Tetrahymena pyriformis, which was used as an indicator organism for the Apicomplexia since by several criteria the ciliates and Apicomplexa are closely related (Edlind T. D. et al., Mol. Phylogenet. Evol. vol. 5, pp. 359-367, 1996). T. pyriformis (ATCC strain 30005) was grown in 1 ml ATCC medium 357 at 25° C. in 4 ml polyallomer culture tubes without shaking. Compounds were dissolved in dimethylsufoxide (DMSO) and added to the cultures (containing 3,000 cells/ml) such that the final DMSO concentration was 0.1-0.3%. […] Parasitol. vol. 84, pp. 355-370, 1996) and Cryptosporidium parvum (Arrowood et al., FEMS Microbial. Lett., vol. 136, pp. 245-249, 1996) were tested for comparison.

Toxoplasma gondii = details: Stokkermans et al., 1996; cited from earlier work
Cryptosporidium parvum = details: Arrowood et al., 1996; cited from earlier work

SMILES	EC50 (Leishmania major)	EC50 (Giardia lamblia)	EC50 (Entamoeba histolytica)	activity at 0.1 µg/mL [1]	EC50 (Tetrahymena pyriformis; 24 hours, 25° C.)	in vitro activity against Toxoplasma gondii (Toxoplasma gondii)	EC50 (Tetrahymena pyriformis; 24 h)	in vitro activity against Cryptosporidium parvum (Cryptosporidium parvum)
CCC(C)(NC(=O)c1cc(Cl)cc(C=NOC)c1)C(=O)CCl (stereo not shown) [Compound 2]	0.03 µg/mL (≈ 0.0869 µM)	0.03 µg/mL (≈ 0.0869 µM)	12 µg/mL (≈ 34.8 µM)	29%	< 0.01 µg/mL			
CCC(C)(NC(=O)c1cc(C)cc(Br)c1)C(=O)CCl (stereo not shown) [Compound 3]	0.2 µg/mL (≈ 0.577 µM)	0.06 µg/mL (≈ 0.173 µM)	16 µg/mL (≈ 46.2 µM)		< 0.01 µg/mL			
CCC(C)(NC(=O)c1cncc(Br)c1)C(=O)CCl (stereo not shown) [Compound 15]	0.7 µg/mL (≈ 2.1 µM)	0.2 µg/mL (≈ 0.599 µM)	20 µg/mL (≈ 59.9 µM)	13%	< 0.01 µg/mL			
Cc1ncc([N+](=O)[O-])n1CCO [Metronidazole, reference compound]		0.7 µg/mL (≈ 4.09 µM)	0.5 µg/mL (≈ 2.92 µM)					
CCC(CC)Nc1c([N+](=O)[O-])cc(C)c(C)c1[N+](=O)[O-] [pendimethalin]						have in vitro activity	2 µg/mL (≈ 7.11 µM)	have in vitro activity
CCCN(CCC)c1c([N+](=O)[O-])cc(C(F)(F)F)cc1[N+](=O)[O-] [trifluralin]					> 6 µg/mL	have in vitro activity		have in vitro activity

Source: patent US6107316A, “Method for treating protozoal infections” (priority 1998, dated 2000)
